In ChEMBL document CHEMBL1132737, “Oxygenated chalcones and bischalcones as potential antimalarial agents” (2000):

How the values were obtained:
Assay type in all cases: functional
Plasmodium berghei [1] = test: Parasitaemia at day 13 after 50 mg/kg/day dose over 4 days
Plasmodium berghei [2] = test: Parasitaemia at day 11 after 50 mg/kg/day dose over 4 days
Plasmodium berghei [3] = test: Parasitemia at day 9 after 50 mg/kg/day dose over 4 days
Plasmodium berghei [4] = test: In vivo activity at day 5 against chloroquine-sensitive Plasmodium berghei infected mice (Mus musculus) at 100 mg/kg intraperitoneal dose over 4 days
Plasmodium berghei [5] = test: Parasitaemia at day 9 after combination dose at 50 mg/kg/day with 15 mg/kg/day […] over 4 days
Plasmodium berghei [6] = test: Parasitaemia at day 7 after combination dose at 50 mg/kg/day with 15 mg/kg/day […] over 4 days
Plasmodium berghei [7] = test: Parasitemia at day 13 after combination dose at 50 mg/kg/day with 15 mg/kg/day […] over 4 days
Plasmodium berghei [8] = test: In vivo activity at day 9 against chloroquine-sensitive Plasmodium berghei infected mice (Mus musculus) at 100 mg/kg intraperitoneal dose over 4 days
Plasmodium berghei [9] = test: Parasitaemia at day 5 after 50 mg/kg/day dose over 4 days
Plasmodium berghei [10] = test: In vivo activity at day 7 against chloroquine-sensitive Plasmodium berghei infected mice (Mus musculus) at 100 mg/kg intraperitoneal dose over 4 days
Plasmodium berghei [11] = test: Parasitaemia at day 17 after combination dose at 50 mg/kg/day with 15 mg/kg/day […] over 4 days
Plasmodium berghei [12] = test: Parasitemia at day 15 after 50 mg/kg/day dose over 4 days
Plasmodium berghei [13] = test: Parasitemia at day 7 after 50 mg/kg/day dose over 4 days
Plasmodium berghei [14] = test: Parasitemia at day 5 after combination dose at 50 mg/kg/day with 15 mg/kg/day […] over 4 days
Plasmodium berghei [15] = test: Parasitaemia at day 15 after combination dose at 50 mg/kg/day with 15 mg/kg/day […] over 4 days
Plasmodium berghei [16] = test: Parasitaemia at day 11 after combination dose at 50 mg/kg/day with 15 mg/kg/day […] over 4 days
Plasmodium berghei [17] = test: Parasitemia at day 17 after 50 mg/kg/day dose over 4 days
Plasmodium berghei [18] = test: In vivo activity after 15 days against chloroquine-sensitive Plasmodium berghei infected mice (Mus musculus) at 100 mg/kg intraperitoneal dose over 4 days
Plasmodium berghei [19] = test: In vivo activity after 11 days against chloroquine-sensitive Plasmodium berghei infected mice (Mus musculus) at 100 mg/kg intraperitoneal dose over 4 days
Plasmodium berghei [20] = test: In vivo activity after 13 days against chloroquine-sensitive Plasmodium berghei infected mice (Mus musculus) at 100 mg/kg intraperitoneal dose over 4 days
Plasmodium berghei [21] = test: Parasitaemia at day 19 after combination dose at 50 mg/kg/day with 15 mg/kg/day […] over 4 days

SMILES	Parasitaemia (Plasmodium berghei [1]) [%]	Parasitaemia (Plasmodium berghei [2]) [%]	Parasitaemia (Plasmodium berghei [3]) [%]	Parasitaemia (Plasmodium berghei [4]) [%]	Parasitaemia (Plasmodium berghei [5]) [%]	Parasitaemia (Plasmodium berghei [6]) [%]	Parasitaemia (Plasmodium berghei [7]) [%]	Parasitaemia (Plasmodium berghei [8]) [%]	Parasitaemia (Plasmodium berghei [9]) [%]	Parasitaemia (Plasmodium berghei [10]) [%]	Parasitaemia (Plasmodium berghei [11]) [%]	Parasitaemia (Plasmodium berghei [12]) [%]	Parasitaemia (Plasmodium berghei [13]) [%]	Parasitaemia (Plasmodium berghei [14]) [%]	Parasitaemia (Plasmodium berghei [15]) [%]	Parasitaemia (Plasmodium berghei [16]) [%]	Parasitaemia (Plasmodium berghei [18]) [%]	Parasitaemia (Plasmodium berghei [19]) [%]	Parasitaemia (Plasmodium berghei [20]) [%]	also measured
COc1ccc(/C=C/C(=O)c2ccc(OCCCOc3ccc(C(=O)/C=C/c4ccc(OC)cc4OC)cc3)cc2)c(OC)c1	10	8.4	4.8	3.2	3.76	2.3	9.5	8	1.3	4.7	18	12.5	2.2	1.2	13.7	7.7				Parasitaemia (Plasmodium berghei [17]): 16%
COc1ccc(/C=C/C(=O)c2ccc(OCCCCOc3ccc(C(=O)/C=C/c4ccc(OC)cc4OC)cc3)cc2)c(OC)c1	7.2	8	3.4	1.5	4	0.6	7.5	2.4	2.6	2	18	8.3	3.5	0.2	13	4.9	9.5	5.2	6.6	
CC(=O)c1ccc(OCCCOc2ccc(C(=O)/C=C/c3ccc4c(c3)OCO4)cc2)cc1	7.8	6.7	2.2	0	1.96	0.04	5.1	1.7	0.7	0.35	13	11.5	1.8	0	7	3	3.85	2.75	3	
COc1ccc(/C=C/C(=O)c2ccc(OCOc3ccc(C(=O)/C=C/c4ccc(OC)cc4OC)cc3)cc2)c(OC)c1				3.4				2		5										
COc1ccc(/C=C/C(=O)c2ccc(OCCCCOc3ccc(C(=O)/C=C/c4ccc(OC)c(OC)c4)cc3)cc2)cc1OC	6.9	5	2.5	0	1.8	0.3	7.5	0.7	1.2	0		13.2	2.5	0.002		2.7	2	1	1.5	
COc1ccc(/C=C/C(=O)c2ccc(OCCCOc3ccc(C(=O)/C=C/c4ccc(OC)c(OC)c4)cc3)cc2)cc1OC	10.4	5	2	0.01	1.9	1.3	12.2	0.6	0.74	0.05	24		2.4	0	18	7.6	3	0.9	1.5	
COc1cccc(/C=C/C(=O)c2ccc(OCCCOc3ccc(C(=O)/C=C/c4cccc(OC)c4)cc3)cc2)c1	5.4	4.2	4.2	0	3	1.1	4.6	1	1.75	0.52	9.5	13	1.9	0.08	7	3	1.7	1.8	1.81	Parasitaemia (Plasmodium berghei [21]): 13%; Parasitaemia (Plasmodium berghei [17]): 19%
COc1ccc(/C=C/C(=O)c2ccc(OCCCCCCOc3ccc(C(=O)/C=C/c4ccc(OC)c(OC)c4)cc3)cc2)cc1OC	7.3	4.3	2	0	1.8	0.06	6	1.3	0.8	0.16	11	15	1.6	0	7.5	2.3	4.25	2.1	3.1	
CC(=O)c1ccc(OCCCCCCOc2ccc(C(=O)/C=C/c3ccc4c(c3)OCO4)cc2)cc1	9	6.5	4.8	1	3.2	2	5.5	4	2.2	2.1		10	3.2	0.02	8	3.2		6.3		
COc1cccc(/C=C/C(=O)c2ccc(OCCCCCCOc3ccc(C(=O)/C=C/c4cccc(OC)c4)cc3)cc2)c1	13	9.5	7.9	2.1	0.14	0	3.6	6.8	1.8	3.4	11.5		3.2	0	6.6	2		11		
COc1ccc(/C=C/C(=O)c2ccc(OCOc3ccc(C(=O)/C=C/c4ccc(OC)c(OC)c4)cc3)cc2)cc1OC	14.3	10.2	5.8	2.8	0.3	0	1.4	7.25	1.5	5.6	11.6		2.3	0	4.4	0.8				Parasitaemia (Plasmodium berghei [21]): 22.6%
COc1cccc(/C=C/C(=O)c2ccc(OCCCCOc3ccc(C(=O)/C=C/c4cccc(OC)c4)cc3)cc2)c1	10.8	6.6	5.7	1.5	2.9	3.2	7.5	3.9	1.9	2	16	13.3	2.1	0.8	10	5		6.4	19	
